The source of these data is PubChem BioAssay (NCI).

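Exposure lasted 48 hours, with cells grown in 96-well plates and compounds tested at five concentrations. GI50: concentration for 50% inhibition of growth. Definition used: TGI = concentration required for complete inhibition of growth.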

The first experiment relates to HT29 colon. Kind of experiment: NCI-60 cell line screen, 48 h.
Consider `CCCCCCC(C)CCCCCCCCCCC(=O)O` (centres undefined), for which the TGI was more than 100 µM.

For `CC(C)(C)c1ccc(OC2CCO2)cc1` (centres undefined), the TGI was 50.9 µM.

`CC1(O)CCn2c(=O)c3cc4ccccc4cc3c(=O)n2C1O` (centres undefined) yielded a TGI of more than 100 µM.

For the compound `COc1cc(CNc2nc3ccc(C(F)(F)F)cc3nc2-c2ccccc2)cc(OC)c1OC`, the TGI was more than 100 µM.

Take `COc1ccccc1NC(=O)/C(=C/c1ccccc1)C(C)=O`: the TGI is more than 100 µM.

`CC(=O)n1c(=O)c2cc3c(=O)n(-c4cccc(C#N)c4)c(=O)c3cc2c1=O`: the TGI is more than 100 µM.

The compound `O=C(CC1(O)C(=O)Nc2c(Cl)ccc(Cl)c21)c1ccc(Cl)cc1Cl` (centres undefined) gave a TGI of 33.3 µM.

As to `CC1=NN(C(=O)c2ccncc2)C(=O)C1N=Nc1ccc(F)cc1` (centres undefined), the TGI is more than 100 µM.

`COc1ccc(C2Oc3c(c(O)cc4c3[C@H](c3ccc(O)cc3O)[C@H](O)C(c3ccc(O)c(O)c3)O4)C[C@@H]2O)cc1O` (some centres undefined) showed a TGI of more than 100 µM.

`CCOC(OC1=C(C#N)CCCC1)C(CC)[Se]c1ccccc1` (centres undefined) came in with a TGI of 73.6 µM.

`C=C1C2Oc3ccccc3C1N(c1ccccc1)O2` (centres undefined) registered a TGI of 67.5 µM.

With `C=C1C(=O)C23C(O)C1CC[C@H]2C12CCCC(C)(COC(C)=O)[C@H]1[C@H](O)[C@]3(O)OC2` (some centres undefined), the TGI came out at 3.36 µM.

Take `O=S1CSSC1`: the TGI worked out at 31.4 µM.

Compound `C=CCNC(=O)N(CCC)CCCC(NC(C)=O)C(=O)NCc1ccccc1` (centres undefined) came in with a TGI of more than 100 µM.

`CN(C)C(=S)Nc1nnc(Nc2ccccc2)s1` displayed a TGI of more than 100 µM.

Regarding `CC(=O)[CH-]C(=O)c1ccccc1.CC(=O)[CH-]C(=O)c1ccccc1.CC1(C)OCC(C2OC3OC(C)(C)OC3C2[O-])O1.CC[O-].[Ti+4]` (centres undefined), the GI50 is 13.7 µM and the TGI came to 29.3 µM.

Take `CCOC(=O)C1(Cc2ccc3ccccc3c2)CCCCC(=O)N1` (centres undefined): the TGI is more than 100 µM.

Regarding `Cc1ccccc1/C=C/C(=O)c1ccccc1`, the TGI is 47.7 µM.

`COC(=O)C1C(=O)N(CCc2c[nH]c3ccccc23)C[C@@H]2CCC(=O)C[C@H]12` (some centres undefined) showed a TGI of more than 100 µM.

`C[C@]12C/C(=C/O)C(=O)C(O)=C1CC[C@@H]1C2CC[C@@]2(C)C1CC[C@@H]2O` (some centres undefined) gave a TGI of 65.1 µM.

Compound `CC1(C)CC(=O)C(CC2C(=O)c3ccccc3C2=O)C(=O)C1` had a TGI of more than 100 µM.

The compound `Cc1ccc(C)c(N2C(=O)C(=O)C(c3nc4ccccc4s3)C(=Nc3cccc4c(=O)[nH][nH]c(=O)c34)C2=O)c1` (centres undefined) returned a TGI of more than 100 µM.

Turning to `N#CC(C#N)=c1c2nsnc2c(=C(C#N)C#N)c2nsnc12`, the TGI was determined as 3.2 µM.

Compound `Cc1nc(-c2cccnc2)sc1C(=O)/C=C/c1cccc([N+](=O)[O-])c1` had a TGI of more than 100 µM.

For a further experiment, the system named is MOLT-4 leukemia. Kind of experiment: NCI-60 cell line screen, 48 h.
Compound `Cc1c2ccncc2c(C)c2c1[nH]c1ccc(O)c(OCC(F)(F)F)c12` showed a TGI of 6.04 µM.

The compound `CC(C)(C)OC(=O)NC1CCCC1=O` (centres undefined) came in with a TGI of more than 100 µM.

`Cc1c(C(=O)/C=C/c2ccccc2[N+](=O)[O-])[n+](=O)c2ccccc2n1[O-]`: the TGI came out at 29.3 µM.

`O=C1[C@H]2ON(c3ccccc3)C(c3ccco3)[C@H]2C(=O)N1c1ccc(Cc2ccc(N3C(=O)[C@@H]4ON(c5ccccc5)C(c5ccco5)[C@@H]4C3=O)cc2)cc1` (some centres undefined) showed a TGI of more than 100 µM.

As to `Cc1cccc(C)c1N1C(=O)C(=O)C(c2nc3ccccc3s2)/C(=N/NC(=O)NN)C1=O` (centres undefined), the TGI was more than 100 µM.

Compound `CCCCCCC(C)CCCCCCCCCCC(=O)O` (centres undefined) returned a TGI of more than 100 µM.

Regarding `CC(C)(C)c1ccc(OC2CCO2)cc1` (centres undefined), the TGI was 72.3 µM.

For the compound `CC1(O)CCn2c(=O)c3cc4ccccc4cc3c(=O)n2C1O` (centres undefined), the TGI was more than 100 µM.

`CC(C)[O-].CC(C)[O-].O=c1cccccc1[O-].O=c1cccccc1[O-].[Ti+4]` yielded a TGI of more than 100 µM.

The compound `COc1cc(CNc2nc3ccc(C(F)(F)F)cc3nc2-c2ccccc2)cc(OC)c1OC` yielded a TGI of 56.8 µM.

For `COc1ccccc1NC(=O)/C(=C/c1ccccc1)C(C)=O`, the TGI is more than 100 µM.

The compound `COc1ccc(C2Oc3c(c(O)cc4c3[C@H](c3ccc(O)cc3O)[C@H](O)C(c3ccc(O)c(O)c3)O4)C[C@@H]2O)cc1O` (some centres undefined) registered a TGI of more than 100 µM.

As for `CCOC(OC1=C(C#N)CCCC1)C(CC)[Se]c1ccccc1` (centres undefined), the TGI came out at 55.8 µM.

`C=C1C2Oc3ccccc3C1N(c1ccccc1)O2` (centres undefined) yielded a TGI of more than 100 µM.

`C=C1C(=O)C23C(O)C1CC[C@H]2C12CCCC(C)(COC(C)=O)[C@H]1[C@H](O)[C@]3(O)OC2` (some centres undefined) came in with a TGI of 0.72 µM.

`O=S1CSSC1`: the TGI amounted to 43.1 µM.

`C=CCNC(=O)N(CCC)CCCC(NC(C)=O)C(=O)NCc1ccccc1` (centres undefined) showed a TGI of more than 100 µM.

Compound `CN(C)C(=S)Nc1nnc(Nc2ccccc2)s1` had a TGI of more than 100 µM.

Take `CC(=O)[CH-]C(=O)c1ccccc1.CC(=O)[CH-]C(=O)c1ccccc1.CC1(C)OCC(C2OC3OC(C)(C)OC3C2[O-])O1.CC[O-].[Ti+4]` (centres undefined): the GI50 is 15.5 µM and the TGI is 82.1 µM.

Take `CCOC(=O)C1(Cc2ccc3ccccc3c2)CCCCC(=O)N1` (centres undefined): the TGI was more than 100 µM.

Turning to `Cc1ccccc1/C=C/C(=O)c1ccccc1`, the TGI was 60.7 µM.

In turn, `COC(=O)C1C(=O)N(CCc2c[nH]c3ccccc23)C[C@@H]2CCC(=O)C[C@H]12` (some centres undefined) had a TGI of more than 100 µM.

The compound `C[C@]12C/C(=C/O)C(=O)C(O)=C1CC[C@@H]1C2CC[C@@]2(C)C1CC[C@@H]2O` (some centres undefined) came in with a TGI of 66.5 µM.

In the case of `CC1(C)CC(=O)C(CC2C(=O)c3ccccc3C2=O)C(=O)C1`, the TGI is more than 100 µM.

Compound `Cc1ccc(C)c(N2C(=O)C(=O)C(c3nc4ccccc4s3)C(=Nc3cccc4c(=O)[nH][nH]c(=O)c34)C2=O)c1` (centres undefined) came in with a TGI of more than 100 µM.

The compound `Cc1nc(-c2cccnc2)sc1C(=O)/C=C/c1cccc([N+](=O)[O-])c1` came in with a TGI of more than 100 µM.

The test system of another experiment is RPMI-8226 leukemia. The experiment is described as follows: NCI-60 cell line screen, 48 h.
The compound `Cc1c2ccncc2c(C)c2c1[nH]c1ccc(O)c(OCC(F)(F)F)c12` returned a TGI of 5.95 µM.

As for `Cc1c(C(=O)/C=C/c2ccccc2[N+](=O)[O-])[n+](=O)c2ccccc2n1[O-]`, the TGI came out at 14.7 µM.

In turn, `O=C1[C@H]2ON(c3ccccc3)C(c3ccco3)[C@H]2C(=O)N1c1ccc(Cc2ccc(N3C(=O)[C@@H]4ON(c5ccccc5)C(c5ccco5)[C@@H]4C3=O)cc2)cc1` (some centres undefined) registered a TGI of more than 100 µM.

`CCCCCCC(C)CCCCCCCCCCC(=O)O` (centres undefined): the TGI is more than 100 µM.

`CC(C)(C)c1ccc(OC2CCO2)cc1` (centres undefined) gave a TGI of 47 µM.

The compound `CC1(O)CCn2c(=O)c3cc4ccccc4cc3c(=O)n2C1O` (centres undefined) registered a TGI of more than 100 µM.

`CC(C)[O-].CC(C)[O-].O=c1cccccc1[O-].O=c1cccccc1[O-].[Ti+4]` yielded a TGI of more than 100 µM.

The compound `COc1cc(CNc2nc3ccc(C(F)(F)F)cc3nc2-c2ccccc2)cc(OC)c1OC` came in with a TGI of more than 100 µM.

As for `COc1ccccc1NC(=O)/C(=C/c1ccccc1)C(C)=O`, the TGI was more than 100 µM.

With `O=C(CC1(O)C(=O)Nc2c(Cl)ccc(Cl)c21)c1ccc(Cl)cc1Cl` (centres undefined), the TGI is 43.7 µM.

Compound `CC1=NN(C(=O)c2ccncc2)C(=O)C1N=Nc1ccc(F)cc1` (centres undefined) returned a TGI of more than 100 µM.

Compound `COc1ccc(C2Oc3c(c(O)cc4c3[C@H](c3ccc(O)cc3O)[C@H](O)C(c3ccc(O)c(O)c3)O4)C[C@@H]2O)cc1O` (some centres undefined) registered a TGI of more than 100 µM.
